Key:
[1] = test system: TPA-induced inflammation of mouse ears; experiment: Potentiation of budesonide in TPA-induced mouse ear inflammation (Experiment 10); assay type: in vivo; settings: BALB/C mice, 24 h
Procedure: Mice (BALB/C) were kept in individual cages, at 20° C. and 55% relative humidity with 12-h light/12-h dark cycle, in a facility that met the Canadian Council on Animal Care (C.C.A.C.) guidelines. The animals were subjected to an 18-hour starving period prior to treatments. […] of mice were treated in the following manner: • (Treatment-1) No application of cream (n=3); • (Treatment-2) Neutral base cream (n=3); • (Treatment-3) Budesonide (0.1%) in neutral base cream (n=3); • (Treatment-4) Budesonide (0.01%) in neutral base cream (n=3); • (Treatment-5) Budesonide (0.01%)+thylakoid extract (0.05%) in neutral base cream (n=3). All treatments were applied 4 and 8 hours following the inflammatory stress (post-treatment) at a dose of 2 μl/cm^2. Animals were kept in the dark for the duration of the treatments. Prior to treatment, mouse ears were subjected to an inflammatory stress by a topical application of phorbol 12-myristate 13-acetate (TPA) (Sigma Chemicals Co.). 20 μL of TPA (0.2 μg/μL) in an acetone solution was applied (Griswold et al., 1998). The right ear of each mouse was treated with TPA whereas the left ear served as the unstressed control. After 24 hours, the mice were sacrificed and a punch of 6 mm in diameter of both the left and right ears was sampled. Ear punch thickness was measured by an electronic digital caliper 0.01 mm (Traceable).

[2] = test system: TNBS-induced colonic damage in rat intestine; experiment: Potentiation of mesalamine in TNBS-stressed rat intestine (Experiment 11); assay type: in vivo; settings: Wistar rats, mesalamine 57 mg/kg with or without extract 2 mg/kg in the intestinal lumen 24 and 48 h before TNBS
Procedure: Male Wistar rats (Charles River Laboratories, Montreal) were kept in individual cages, at 20° C. and 55% relative humidity with 12-h light/12-h dark cycle, in a facility that met the Canadian Council on Animal Care (C.C.A.C.) guidelines. The rats were subjected to a 24-hour starving period prior to inflammatory stress induction. Four groups of rats were treated in the following manner: • (Treatment-1) Non-stressed control (n=3); • (Treatment-2) 2,4,6-Trinitrobenzenesulfonic acid (inflammatory agent) in the intestinal lumen (n=3); • (Treatment-3) Mesalamine (5-aminosalicyclic acid; NSAID) (57 mg/kg) administered directly in the intestinal lumen 24 and 48 hours prior to administration of the stress agent (n=3) • (Treatment4) Thylakoid extract (0.05%) (2 mg/kg)+mesalamine (57 mg/kg) administered directly in the intestinal lumen 24 and 48 hours prior to administration of the stress agent (n=3). Twenty-four hours later, the rats were sacrificed and a 10 cm excision of the intestine was sampled.

| Compound | decrease of ear punch thickness ([1]; budesonide 0.01% in neutral base cream 4 and 8 h after TPA) [%] | decrease of ear punch thickness compared to the untreated control (Treatment-1) ([1]; budesonide 0.1% in neutral base cream 4 and 8 h after TPA) [%] | macroscopic colonic damage score (scale 0-10) [2] |
| --- | --- | --- | --- |
| CCCC1O[C@@H]2C[C@H]3[C@@H]4CCC5=CC(=O)C=C[C@]5(C)[C@H]4[C@@H](O)C[C@]3(C)[C@]2(C(=O)CO)O1 (stereo partly drawn) [Budesonide, budesonide] | 32.6 | 58.2 |  |
| Nc1ccc(O)c(C(=O)O)c1 [mesalamine, 5-aminosalicyclic acid] |  |  | 4.0 |
